Reference: patent US11603378B2, “Azole silane compound” (Atotech Deutschland GmbH, priority 2018, dated 2023)

How the values were obtained:
Format in all cases: physicochemical
[1] = Solubility test: time until 50 g/L of compound is fully dissolved in glycol ether solvent; details: approx. 22° C., constant stirring, test carried out for 30 minutes; for t [min] DEGBE (time until fully dissolved): 50 g/L in diethylene glycol monobutyl ether; for t [min] EGBE (time until fully dissolved): 50 g/L in ethylene glycol monobutyl ether
Experimental: In a solubility test, solubility in diethylene glycol monobutyl ether (DEGBE) and ethylene glycol monobutyl ether (EGBE) as solvents was tested at approximately 22° C. under constant stirring. For that, the azole silane compound of Formula (Ia), obtained in Example A), 1), and the reference compound of formula (X) were dissolved in respective samples (mixtures).
In each solubility test the time “t” was determined until an amount of the respective compound in its highly viscous state, corresponding in each case to a concentration of 50 g/L of the azole silane compound (approximately corresponding to 5 wt.-%, based on the total weight of a respective test composition), was fully dissolved in the respective solvent. Each solubility test was carried out for 30 minutes.

[2] = Stability test of aqueous working solution (precipitation at various pH); set-up: key: xx = strong precipitation; x = little, insignificant precipitation; 0 = no precipitation; details: 50° C., approx. 1 wt.-%, 250 mL/L storage solution pH 11 + 750 mL/L water
Experimental: C-2ii) Aqueous Working Solution:
In a second stability test, stability of a compound of formula (Ib) also obtained in Example A), 3) was investigated at various pH values but with lower concentration compared to C-2i.
For that purpose, various working solutions (according to the present invention and not according to the present invention) have been prepared each comprising 250 mL/L of storage solution with pH 11 as described above under item C-2i and 750 mL/L water such that the compound of formula (Ib) was present in an total amount of approximately 1 wt.-%, based on the total weight of the respective working solution. The various pH values were obtained by adding sulfuric acid. The stability was evaluated after 14 days by carefully determining the presence of precipitates. During the stability tests, the temperature of each storage solution was kept constant at 50° C.

[3] = Stability test of alkaline storage solution (precipitation in dependence of pH); set-up: key to precipitation, storage solution: xx = strong precipitation; x = little, insignificant precipitation; 0 = no precipitation; details: for precipitation, storage solution: 50° C., 4 wt.-% in 20 wt.-% water / 76 wt.-% DEGBE
Experimental: C-2i) Alkaline Storage Solution: In a first stability test, stability of a compound of formula (Ib) obtained in Example A), 3) was further investigated in dependence of the pH. For that purpose, various storage solutions (according to the present invention and not according to the present invention) have been prepared each comprising 200 mL/L water (corresponding to approximately 20 wt.-%), 800 mL/L DEGBE (corresponding to approximately 76 wt.-%), and a compound of formula (Ib) in a total amount of 4 wt.-%, based on the total weight of the respective storage solution. The various pH values were obtained by adding sodium hydroxide or sulfuric acid. The stability was evaluated after 1, 7, and 15 days by carefully determining the presence of any precipitates. During the stability tests, the temperature of each storage solution was 50° C.

CO[Si](CCCOCC(O)CSc1nnc(N)s1)(OC)OC (stereo not shown) [formula (Ia)]
10 min: t [min] EGBE (time until fully dissolved) [1]
12 min: t [min] DEGBE (time until fully dissolved) [1]

CO[Si](CCCOCC(O)CSc1nnc(N)[nH]1)(OC)OC (stereo not shown) [formula (Ib)]
stable: stability in DEGBE storage solution (in words) ([3]; comparatively high pH, concentrations of approximately 4 wt.-%)
x: precipitation, working solution ([2]; pH 8, after 14 days) | precipitation, storage solution ([3]; pH 10, 1 d) | precipitation, storage solution ([3]; pH 10, 7 d) | precipitation, storage solution ([3]; pH 10, 15 d)
0: precipitation, working solution ([2]; pH 6, after 14 days) | precipitation, working solution ([2]; pH 7, after 14 days) | precipitation, storage solution ([3]; pH 11, 1 d) | precipitation, storage solution ([3]; pH 11, 7 d) | precipitation, storage solution ([3]; pH 11, 15 d) | precipitation, storage solution ([3]; pH 12, 1 d) | precipitation, storage solution ([3]; pH 12, 7 d) | precipitation, storage solution ([3]; pH 12, 15 d)
xx: precipitation, working solution ([2]; pH 4, after 14 days) | precipitation, working solution ([2]; pH 10, after 14 days) | precipitation, storage solution ([3]; pH 4, 1 d) | precipitation, storage solution ([3]; pH 4, 7 d) | precipitation, storage solution ([3]; pH 4, 15 d) | precipitation, storage solution ([3]; pH 7, 1 d) | precipitation, storage solution ([3]; pH 7, 7 d) | precipitation, storage solution ([3]; pH 7, 15 d)

CO[Si](CCCSc1nnc(N)[nH]1)(OC)OC [formula (X), reference compound]
25 min: t [min] DEGBE (time until fully dissolved) [1]
> 30 min: t [min] EGBE (time until fully dissolved) [1]
